# Reference: patent US20220370416A1, “COMPOUNDS AND METHODS FOR TARGETED DEGRADATION OF KRAS” (Arvinas Operations, Inc., priority 2020, published 2022)
# How the values were obtained:
# [1] = target: T1, HiBit-KRAS^G12C (Homo sapiens, UniProt P01116, G12C); test: HiBit degradation assay in SW1573 HiBit-KRas^G12C cells; type: cell-based; set-up: expressed in transfected cells; host or cells: SW1573 (clone E6), modified pcDNA3.1 vector, TK promoter; settings: 24 hours
# Procedure, shortened: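 SW1573 cells stably expressing N-terminally HiBit-tagged KRAS G12C, under the TK promoter, were treated 24 h at 37 °C with 10 μM to 20 nM compound in 0.1% or 0.5% DMSO. Residual HiBit luminescence normalised to DMSO and fitted with a 4-parameter model for DC50 and Dmax. Points with ≥50% viability loss (alamar blue) excluded.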
# [2] = target: T1, HiBit-KRAS^G12C; test: HiBit degradation assay in MiaPaCa-2 HiBit-KRas^G12C cells; type: cell-based; settings: 24 hours
# Procedure, shortened: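 MiaPaCa-2 cells with CRISPR N-terminal HiBit knock-in on one endogenous KRAS^G12C allele, treated 24 hours at 37° C with compound titrated 10 μM to 20 nM (0.1% or 0.5% DMSO). Lytic HiBit luminescence normalized to DMSO, 4-parameter fit giving DC50 and Dmax; points cytotoxic to […] cells by alamar blue excluded.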
# [3] = read-out: KRas^G12C-HiBiT (SW1573; 0.5% DMSO) IC50***, SW1573 HiBit-KRas^G12C, 0.5% DMSO
# [4] = read-out: KRas^G12C-HiBiT (MiaPaCa; 0.5% DMSO) IC50, MiaPaCa-2 HiBit-KRas^G12C cells, 0.5% DMSO
# [5] = SW1573, read-out: KRas^G12C-HiBit (SW1573; 0.1% DMSO) Dmax**, SW1573 HiBit-KRas^G12C, 0.1% DMSO
# [6] = SW1573 HiBit-KRas^G12C, 0.1% DMSO, read-out: KRas^G12C-HIBit (SW1573; 0.1% DMSO) DC50*
# [7] = read-out: KRas^G12C-HiBiT (MiaPaCa; 0.1% DMSO) IC50, MiaPaCa-2 HiBit-KRas^G12C cells, 0.1% DMSO
# [8] = SW1573, SW1573 HiBit-KRas^G12C, 0.5% DMSO, read-out: KRas^G12C-HiBiT (SW1573; 0.5% DMSO) Dmax**
# [9] = MIA PaCa-2, MiaPaCa-2 HiBit-KRas^G12C cells, 0.5% DMSO, maximum degradation, read-out: KRas^G12C-HiBiT (MiaPaCa; 0.5% DMSO) DMax
# T1 sequence (P01116 1-186 isoform P01116-2 G12C limits assumed): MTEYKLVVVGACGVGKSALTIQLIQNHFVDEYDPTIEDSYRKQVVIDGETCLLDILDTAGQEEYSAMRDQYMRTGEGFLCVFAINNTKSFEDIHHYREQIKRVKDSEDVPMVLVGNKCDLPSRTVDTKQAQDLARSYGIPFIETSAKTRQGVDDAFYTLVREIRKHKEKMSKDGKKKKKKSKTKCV
smiles,measurement,setting,value
"C=CC(=O)N1CCN(c2nc(OCCN3CCC(CN(C)CC(=O)N[C@H](C(=O)N4C[C@H](O)C[C@H]4C(=O)N[C@@H](C)c4ccc(-c5scnc5C)cc4)C(C)(C)C)CC3)nc3c(F)c(-c4cc(O)cc5ccccc45)c(Cl)cc23)C[C@@H]1CC#N [Compound 148, (2S,4R)-1-[(2S)-2-{2-[({1-[2-({6-chloro-4-[(3S)-3-(cyanomethyl)-4-(prop-2-enoyl)piperazin-1-yl]-8-fluoro-7-(3-hydroxynaphthalen-1-yl)quinazolin-2-yl}oxy)ethyl]piperidin-4-yl}methyl)(methyl)amino]acetamido}-3,3-dimethylbutanoyl]-4-hydroxy-N-[(1S)-1-[4-(4-methyl-1,3-thiazol-5-yl)phenyl]ethyl]pyrrolidine-2-carboxamide]",Dmax,"[1]; SW1573, read-out: KRas^G12C-HiBiT (SW1573; 0.5% DMSO) Dmax**, SW1573 HiBit-KRas^G12C, 0.5% DMSO",35 to 70%
same,DC50,[1]; [3],0.1 to 1 µM
same,Dmax,"[2]; MIA PaCa-2, read-out: KRas^G12C-HiBiT (MiaPaCa; 0.5% DMSO) DMax, MiaPaCa-2 HiBit-KRas^G12C cells, 0.5% DMSO, maximum degradation",35 to 70%
same,DC50,[2]; [4],0.1 to 1 µM
"C=CC(=O)N1CCN(c2nc(O[C@H](C)CN3CCN(CC4CN(CC(=O)N[C@H](C(=O)N5C[C@H](O)C[C@H]5C(=O)N[C@@H](C)c5ccc(-c6scnc6C)cc5)C(C)(C)C)C4)CC3)nc3c(F)c(-c4cc(O)cc5ccccc45)c(Cl)cc23)CC1 [Compound 28, (2S,4R)-1-[(2S)-2-{2-[3-({4-[(2R)-2-{[6-chloro-8-fluoro-7-(3-hydroxynaphthalen-1-yl)-4-[4-(prop-2-enoyl)piperazin-1-yl]quinazolin-2-yl]oxy}propyl]piperazin-1-yl}methyl)azetidin-1-yl]acetamido}-3,3-dimethylbutanoyl]-4-hydroxy-N-[(1S)-1-[4-(4-methyl-1,3-thiazol-5-yl)phenyl]ethyl]pyrrolidine-2-carboxamide]",Dmax,[1]; [5],< 35%
same,DC50,[1]; [6],0.1 to 1 µM
same,DC50,[2]; [7],> 1 µM
"C=CC(=O)N1CCN(c2nc(OCCN3CCC(COCC(=O)N[C@H](C(=O)N4C[C@H](O)C[C@H]4C(=O)N[C@@H](C)c4ccc(-c5scnc5C)cc4)C(C)(C)C)CC3)nc3c(F)c(-c4cc(O)cc5ccccc45)c(Cl)cc23)C[C@@H]1CC#N (atropisomer, axis not shown) [Compound 110, (2S,4R)-1-[(2S)-2-[2-({1-[2-({6-chloro-4-[(3S)-3-(cyanomethyl)-4-(prop-2-enoyl)piperazin-1-yl]-8-fluoro-7-(3-hydroxynaphthalen-1-yl)quinazolin-2-yl}oxy)ethyl]piperidin-4-yl}methoxy)acetamido]-3,3-dimethylbutanoyl]-4-hydroxy-N-[(1S)-1-[4-(4-methyl-1,3-thiazol-5-yl)phenyl]ethyl]pyrrolidine-2-carboxamide]",KRas^G12C-HiBiT (SW1573; 0.5% DMSO) Dmax**,"[1]; SW1573 HiBit-KRas^G12C, 0.5% DMSO",C (C ≤ 35)
same,KRas^G12C-HiBiT (MiaPaCa; 0.5% DMSO) DMax,"[2]; MiaPaCa-2 HiBit-KRas^G12C cells, 0.5% DMSO, maximum degradation",C (C ≤ 35)
"C=CC(=O)N1CCN(c2nc(O[C@H](C)CN3CCC(CCCOC4CN(CC(=O)N[C@H](C(=O)N5C[C@H](O)C[C@H]5C(=O)N[C@@H](C)c5ccc(-c6scnc6C)cc5)C(C)(C)C)C4)CC3)nc3c(F)c(-c4cc(O)cc5ccccc45)c(Cl)cc23)CC1 [Compound 48, (2S,4R)-1-[(2S)-2-{2-[3-(3-{1-[(2R)-2-{[6-chloro-8-fluoro-7-(3-hydroxynaphthalen-1-yl)-4-[4-(prop-2-enoyl)piperazin-1-yl]quinazolin-2-yl]oxy}propyl]piperidin-4-yl}propoxy)azetidin-1-yl]acetamido}-3,3-dimethylbutanoyl]-4-hydroxy-N-[(1S)-1-[4-(4-methyl-1,3-thiazol-5-yl)phenyl]ethyl]pyrrolidine-2-carboxamide]",Dmax,[1]; [5],< 35%
same,DC50,[1]; [6],0.1 to 1 µM
same,DC50,[2]; [7],> 1 µM
"C=CC(=O)N1CCN(c2nc(O[C@H](C)CN3CC(N4CCN(CC(=O)N[C@H](C(=O)N5C[C@H](O)C[C@H]5C(=O)N[C@@H](C)c5ccc(-c6scnc6C)cc5)C(C)(C)C)CC4)C3)nc3c(F)c(-c4cc(O)cc5ccccc45)c(Cl)cc23)CC1 [Compound 62, (2S,4R)-1-[(2S)-2-[2-(4-{1-[(2R)-2-{[6-chloro-8-fluoro-7-(3-hydroxynaphthalen-1-yl)-4-[4-(prop-2-enoyl)piperazin-1-yl]quinazolin-2-yl]oxy}propyl]azetidin-3-yl}piperazin-1-yl)acetamido]-3,3-dimethylbutanoyl]-4-hydroxy-N-[(1S)-1-[4-(4-methyl-1,3-thiazol-5-yl)phenyl]ethyl]pyrrolidine-2-carboxamide]",Dmax,[1]; [5],35 to 70%
same,DC50,[1]; [6],0.1 to 1 µM
same,Dmax,"[2]; MIA PaCa-2, read-out: KRas^G12C-HiBiT (MiaPaCa; 0.1% DMSO) DMax, MiaPaCa-2 HiBit-KRas^G12C cells, 0.1% DMSO, maximum degradation",< 35%
"C=C(F)C(=O)N1CCN(c2nc(OCCN3CCC4(CC3)CN(c3cc([C@H](C(=O)N5C[C@H](O)C[C@H]5C(=O)N[C@@H](C)c5ccc(-c6ccnn6C)cc5)C(C)C)on3)C4)nc3c(F)c(-c4cc(O)cc5ccccc45)c(Cl)cc23)C[C@@H]1CC#N (atropisomer, axis not shown) [Compound 112, (2S,4R)-1-[(2R)-2-(3-{7-[2-({6-chloro-4-[(3S)-3-(cyanomethyl)-4-(2-fluoroprop-2-enoyl)piperazin-1-yl]-8-fluoro-7-(3-hydroxynaphthalen-1-yl)quinazolin-2-yl}oxy)ethyl]-2,7-diazaspiro[3.5]nonan-2-yl}-1,2-oxazol-5-yl)-3-methylbutanoyl]-4-hydroxy-N-[(1S)-1-[4-(1-methyl-1H-pyrazol-5-yl)phenyl]ethyl]pyrrolidine-2-carboxamide]",Dmax,[1]; [8],> 70%
same,DC50,[1]; [3],0.1 to 1 µM
same,Dmax,[2]; [9],> 70%
same,DC50,[2]; [4],0.1 to 1 µM
"C=CC(=O)N1CCN(c2nc(OCCN3CCC(OCCOCCOCC(=O)N[C@H](C(=O)N4C[C@H](O)C[C@H]4C(=O)N[C@@H](C)c4ccc(-c5scnc5C)cc4)C(C)(C)C)CC3)nc3c(F)c(-c4cc(O)cc5ccccc45)c(Cl)cc23)CC1 [Compound 60, (2S,4R)-1-[(2S)-2-{2-[2-(2-{[1-(2-{[6-chloro-8-fluoro-7-(3-hydroxynaphthalen-1-yl)-4-[4-(prop-2-enoyl)piperazin-1-yl]quinazolin-2-yl]oxy}ethyl)piperidin-4-yl]oxy}ethoxy)ethoxy]acetamido}-3,3-dimethylbutanoyl]-4-hydroxy-N-[(1S)-1-[4-(4-methyl-1,3-thiazol-5-yl)phenyl]ethyl]pyrrolidine-2-carboxamide]",Dmax,"[1]; SW1573, SW1573 HiBit-KRas^G12C, 0.1% DMSO, read-out: KRas^G12C-HiBit (SW1573; 0.1% DMSO) Dmax**",< 35%
same,Dmax,[1]; [8],35 to 70%
same,DC50,[1]; [6],0.1 to 1 µM
same,Dmax,[2]; [9],< 35%
same,DC50,[2]; [7],> 1 µM
"C=CC(=O)N1CCN(c2nc(O[C@H](C)CN3CCN(CCCN4CCN(CC(=O)N[C@H](C(=O)N5C[C@H](O)C[C@H]5C(=O)N[C@@H](C)c5ccc(-c6scnc6C)cc5)C(C)(C)C)CC4)CC3)nc3c(F)c(-c4cc(O)cc5ccccc45)c(Cl)cc23)CC1 [Compound 49, (2S,4R)-1-[(2S)-2-{2-[4-(3-{4-[(2R)-2-{[6-chloro-8-fluoro-7-(3-hydroxynaphthalen-1-yl)-4-[4-(prop-2-enoyl)piperazin-1-yl]quinazolin-2-yl]oxy}propyl]piperazin-1-yl}propyl)piperazin-1-yl]acetamido}-3,3-dimethylbutanoyl]-4-hydroxy-N-[(1S)-1-[4-(4-methyl-1,3-thiazol-5-yl)phenyl]ethyl]pyrrolidine-2-carboxamide]",Dmax,[1]; [5],< 35%
same,DC50,[1]; [6],0.1 to 1 µM
same,DC50,[2]; [7],> 1 µM
